According to ChEMBL document CHEMBL1201862, “PubChem BioAssay data set” (2004):
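Compound exposure: 48 hours, 5 concentrations, 96-well plates. GI50 is the concentration that inhibits growth by half.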 Calls of active or inactive are those of the source. Cut-off read from the data, not from the text of the source: active = GI50 up to about 1.1 µM and inactive = higher.

What was measured:
Test in all cases: inhibition of tumour cell growth, NCI panel, 48 h
COLO 205 = tested on: COLO 205
HCC 2998 = tested on: HCC 2998
HCT-116 = tested on: HCT-116
K562 = tested on: K562
MOLT-4 = tested on: MOLT-4
NCI-H226 = tested on: NCI-H226
NCI-H23 = tested on: NCI-H23
SF-268 = tested on: SF-268
SN12C = tested on: SN12C
SNB-19 = tested on: SNB-19
SR = tested on: SR
U-251 = tested on: U-251
UACC-257 = tested on: UACC-257
HL-60 = tested on: HL-60
HOP-62 = tested on: HOP-62
OVCAR-3 = tested on: OVCAR-3
OVCAR-5 = tested on: OVCAR-5
EKVX = tested on: EKVX
HOP-18 = tested on: HOP-18
KM-20L2 = tested on: KM-20L2

Measured: GI50

CCOC(=O)C1(CO)CSCCSC1
inactive: COLO 205 > 100 µM | HCC 2998 > 100 µM | HCT-116 > 100 µM | K562 > 100 µM | MOLT-4 > 100 µM | NCI-H226 > 100 µM | NCI-H23 > 100 µM | SF-268 > 100 µM | SN12C > 100 µM | SNB-19 > 100 µM | SR > 100 µM | U-251 > 100 µM | UACC-257 > 100 µM

O=C(O)c1cc([N+](=O)[O-])cc2c(=O)c3cnccc3[nH]c12
inactive: COLO 205 > 100 µM | HCC 2998 > 100 µM | HCT-116 > 100 µM | HL-60 > 100 µM | HOP-62 > 100 µM | K562 > 100 µM | MOLT-4 54.8 µM | NCI-H226 > 100 µM | NCI-H23 > 100 µM | OVCAR-3 > 100 µM | OVCAR-5 > 100 µM | SN12C > 100 µM | SNB-19 > 100 µM | SR > 100 µM | U-251 > 100 µM

CSc1nc2c(ncn2C2OC(CO)C(O)C(O)C2O)c(=O)[nH]1 (stereo unspecified)
inactive: COLO 205 > 100 µM | EKVX > 100 µM | HCC 2998 > 100 µM | HCT-116 > 100 µM | HL-60 > 100 µM | HOP-18 > 100 µM | HOP-62 > 92.5 µM | K562 > 100 µM | KM-20L2 > 100 µM | MOLT-4 > 100 µM | NCI-H226 > 100 µM | NCI-H23 > 100 µM | OVCAR-3 > 100 µM | OVCAR-5 > 100 µM | SF-268 > 100 µM | SN12C > 100 µM | SNB-19 > 100 µM | U-251 > 83.8 µM | UACC-257 > 100 µM

O=S(=O)(CF)OCCCCOS(=O)(=O)CF
inactive: COLO 205 > 100 µM | EKVX > 100 µM | HCT-116 > 100 µM | HL-60 13.2 µM | HOP-18 > 100 µM | K562 > 100 µM | KM-20L2 > 100 µM | MOLT-4 23.8 µM | NCI-H226 > 100 µM | NCI-H23 97.9 µM | OVCAR-3 > 100 µM | SF-268 > 100 µM | SN12C > 100 µM | SNB-19 95.3 µM | U-251 > 100 µM

CCc1nnc(-c2nsc3ccccc23)s1
inactive: COLO 205 > 100 µM | EKVX 23 µM | HCC 2998 > 100 µM | HCT-116 > 100 µM | HL-60 > 100 µM | HOP-18 > 100 µM | HOP-62 > 100 µM | K562 54.7 µM | KM-20L2 63.5 µM | MOLT-4 38.5 µM | NCI-H23 > 100 µM | OVCAR-3 24.1 µM | OVCAR-5 > 100 µM | SF-268 > 100 µM | SN12C > 100 µM | SNB-19 > 100 µM | SR 53 µM | U-251 > 100 µM | UACC-257 > 100 µM
